The target in test [1] is T1, Serine/threonine-protein kinase Nek9 (Homo sapiens) (UniProt Q8TD19).
T1 sequence (whole entry): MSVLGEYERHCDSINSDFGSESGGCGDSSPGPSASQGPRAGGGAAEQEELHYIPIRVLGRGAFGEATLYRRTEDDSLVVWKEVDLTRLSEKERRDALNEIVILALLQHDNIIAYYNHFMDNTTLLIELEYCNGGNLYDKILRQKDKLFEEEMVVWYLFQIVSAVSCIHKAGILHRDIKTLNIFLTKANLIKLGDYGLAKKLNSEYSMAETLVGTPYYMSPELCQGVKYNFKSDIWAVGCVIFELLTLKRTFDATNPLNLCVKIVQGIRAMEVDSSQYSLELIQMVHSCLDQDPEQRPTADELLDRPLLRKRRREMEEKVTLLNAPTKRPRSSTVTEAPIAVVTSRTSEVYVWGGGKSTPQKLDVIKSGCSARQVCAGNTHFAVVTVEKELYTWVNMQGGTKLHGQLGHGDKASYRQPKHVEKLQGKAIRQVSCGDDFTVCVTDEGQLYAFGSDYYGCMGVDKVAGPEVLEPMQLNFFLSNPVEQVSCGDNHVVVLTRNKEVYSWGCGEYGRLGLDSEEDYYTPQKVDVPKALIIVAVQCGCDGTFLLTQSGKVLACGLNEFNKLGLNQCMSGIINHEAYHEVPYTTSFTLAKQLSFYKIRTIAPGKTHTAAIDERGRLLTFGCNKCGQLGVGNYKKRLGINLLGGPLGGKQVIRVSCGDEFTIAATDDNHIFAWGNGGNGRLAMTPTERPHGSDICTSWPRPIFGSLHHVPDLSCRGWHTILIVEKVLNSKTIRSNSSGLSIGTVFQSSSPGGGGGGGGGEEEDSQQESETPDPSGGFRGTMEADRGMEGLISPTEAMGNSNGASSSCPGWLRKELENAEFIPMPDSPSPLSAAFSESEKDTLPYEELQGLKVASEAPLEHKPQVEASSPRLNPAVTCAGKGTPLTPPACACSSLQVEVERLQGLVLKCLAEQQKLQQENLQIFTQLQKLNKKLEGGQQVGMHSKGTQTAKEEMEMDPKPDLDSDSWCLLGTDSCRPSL
Put plainly: Selectivity interaction (KinomeScan (DiscoverX)) EUB0001079a NEK9. The note with it: at 1 µM.

Test [2] has as its target Mitogen-activated protein kinase kinase kinase kinase 5 (Homo sapiens) (UniProt Q9Y4K4). Put plainly: Selectivity interaction (KinomeScan (DiscoverX)) EUB0001079a MAP4K5. Particulars: at 1 µM.
The target in test [3] is T2, cGMP-dependent protein kinase 2 (Homo sapiens) (UniProt Q13237).
T2 sequence (whole entry): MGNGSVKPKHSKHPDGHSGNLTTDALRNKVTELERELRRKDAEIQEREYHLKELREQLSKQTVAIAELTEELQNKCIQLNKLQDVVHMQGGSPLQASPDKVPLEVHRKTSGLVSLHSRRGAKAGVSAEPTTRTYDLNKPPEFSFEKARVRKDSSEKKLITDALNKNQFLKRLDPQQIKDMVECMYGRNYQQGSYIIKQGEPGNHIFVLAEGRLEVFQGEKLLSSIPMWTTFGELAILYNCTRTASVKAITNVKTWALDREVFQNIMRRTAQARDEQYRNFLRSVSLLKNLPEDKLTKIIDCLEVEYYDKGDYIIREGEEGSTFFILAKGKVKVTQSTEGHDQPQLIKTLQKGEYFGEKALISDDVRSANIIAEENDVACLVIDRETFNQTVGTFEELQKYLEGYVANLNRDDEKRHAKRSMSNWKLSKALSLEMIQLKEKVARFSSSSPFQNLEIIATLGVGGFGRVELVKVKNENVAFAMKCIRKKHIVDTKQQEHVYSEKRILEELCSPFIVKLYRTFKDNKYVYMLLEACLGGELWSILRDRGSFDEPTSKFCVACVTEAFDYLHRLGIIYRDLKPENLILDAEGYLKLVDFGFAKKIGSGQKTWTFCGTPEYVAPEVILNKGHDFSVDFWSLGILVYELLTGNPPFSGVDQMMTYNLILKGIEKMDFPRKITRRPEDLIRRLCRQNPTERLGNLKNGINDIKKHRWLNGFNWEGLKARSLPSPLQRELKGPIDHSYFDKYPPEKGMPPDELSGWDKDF
Put plainly: Selectivity interaction (KinomeScan (DiscoverX)) EUB0001079a PRKG2. The note with it: at 1 µM.

The target in test [4] is Tyrosine-protein kinase Lck (Homo sapiens, UniProt P06239). Kind of test: Selectivity interaction (Panel of kinases, GPCRs, ion channels and transporters (enzymatic assay)) EUB0000266bCl LCK.
Test [5] addresses Ribosomal protein S6 kinase alpha-3 (Homo sapiens, UniProt P51812). Kind of test: Selectivity interaction (ActivX KiNativ screen (ex vivo kinase selectivity in human PBMCs)) EUB0001619a RPS6KA3. The class given is cell-based. The note with it: PBMC, at 1 µM.
Test [6] addresses Leukocyte tyrosine kinase receptor (Homo sapiens, UniProt P29376). Put plainly: Selectivity interaction (KinomeScan (DiscoverX)) EUB0001619a LTK. Particulars: at 1 µM.
Test [7] concerns the target Dual specificity tyrosine-phosphorylation-regulated kinase 1A (Homo sapiens, UniProt Q13627). Kind of test: Selectivity interaction (Kinase panel (literature)) EUB0001199aCl DYRK1A. The note with it: at 1 µM.
The target of test [8] is Fibroblast growth factor receptor 3 (Homo sapiens, UniProt P22607). Put plainly: Selectivity interaction (Kinase panel (Invitrogen)) EUB0000639a FGFR3. Particulars: at 200 nM.
Test [9] deals with G protein-coupled receptor kinase 6 (Homo sapiens) (UniProt P43250). Put plainly: Selectivity interaction (Kinase panel (Invitrogen)) EUB0000639a GRK6. The note with it: at 200 nM.
In test [10] the target is 5'-AMP-activated protein kinase catalytic subunit alpha-1 (Homo sapiens, UniProt Q13131). Put plainly: Selectivity interaction (ActivX KiNativ screen (kinase selectivity in THP-1 cell lysates)) EUB0000639a PRKAA1. The class given is subcellular. Particulars: lysate, at 1 µM.
Test [11] addresses Protein kinase C eta type (Homo sapiens) (UniProt P24723). Particulars: at 10 µM.
For test [12], the target named is CDK6/cyclin D2 (Homo sapiens) (UniProt Q00534+P30279). Put plainly: Selectivity interaction (Millipore kinase profiler) EUB0000124b CDK6. It is filed as protein-complex assay. Particulars: at 10 µM.
The target in test [13] is CDK9/cyclin T1 (Homo sapiens) (UniProt O60563+P50750). Kind of test: (§1) Selectivity interaction (ProQinase) EUB0000171b CDK9. The class given is protein-complex assay.
Test [14] deals with CDK9/Cyclin K (Homo sapiens) (UniProt P50750+O75909). The test is described as §1. It is filed as protein-complex assay.
For test [15], the target named is Beta-1 adrenergic receptor (Homo sapiens, UniProt P08588). Put plainly: Selectivity interaction (Eurofins CEREP Diversity Profile (receptors and ion channels)) EUB0000279b ADRB1. Particulars: at 10 µM.
The target of test [16] is MAP kinase-interacting serine/threonine-protein kinase 2 (Homo sapiens, UniProt Q9HBH9). Kind of test: Selectivity interaction (KinomeScan (DiscoverX)) EUB0000045b MKNK2.
In test [17] the target is Serine/threonine-protein kinase tousled-like 2 (Homo sapiens) (UniProt Q86UE8). Put plainly: Selectivity interaction (KinomeScan (DiscoverX)) EUB0000618a TLK2. The note with it: at 10 µM.

Each structure is given as a SMILES string.

The results in this text go back to ChEMBL document CHEMBL5465560, “Selectivity Literature for EUbOPEN Chemogenomic Library” (2024).

MAP kinase-interacting serine/threonine-protein kinase 2, sequence (Q9HBH9 whole entry, looked up): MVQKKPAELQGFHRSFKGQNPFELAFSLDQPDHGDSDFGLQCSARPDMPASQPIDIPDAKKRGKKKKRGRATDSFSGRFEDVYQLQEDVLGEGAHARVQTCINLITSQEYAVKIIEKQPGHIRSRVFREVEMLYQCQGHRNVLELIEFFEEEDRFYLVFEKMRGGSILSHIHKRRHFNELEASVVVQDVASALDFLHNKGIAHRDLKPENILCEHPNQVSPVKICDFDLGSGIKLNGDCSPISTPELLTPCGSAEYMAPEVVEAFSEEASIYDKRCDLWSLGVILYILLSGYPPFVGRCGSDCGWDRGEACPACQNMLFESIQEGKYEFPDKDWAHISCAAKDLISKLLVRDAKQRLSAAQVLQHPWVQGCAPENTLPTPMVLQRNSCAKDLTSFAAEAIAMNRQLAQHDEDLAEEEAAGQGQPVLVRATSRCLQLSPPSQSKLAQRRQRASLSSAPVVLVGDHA
Beta-1 adrenergic receptor, sequence (P08588 whole entry, looked up): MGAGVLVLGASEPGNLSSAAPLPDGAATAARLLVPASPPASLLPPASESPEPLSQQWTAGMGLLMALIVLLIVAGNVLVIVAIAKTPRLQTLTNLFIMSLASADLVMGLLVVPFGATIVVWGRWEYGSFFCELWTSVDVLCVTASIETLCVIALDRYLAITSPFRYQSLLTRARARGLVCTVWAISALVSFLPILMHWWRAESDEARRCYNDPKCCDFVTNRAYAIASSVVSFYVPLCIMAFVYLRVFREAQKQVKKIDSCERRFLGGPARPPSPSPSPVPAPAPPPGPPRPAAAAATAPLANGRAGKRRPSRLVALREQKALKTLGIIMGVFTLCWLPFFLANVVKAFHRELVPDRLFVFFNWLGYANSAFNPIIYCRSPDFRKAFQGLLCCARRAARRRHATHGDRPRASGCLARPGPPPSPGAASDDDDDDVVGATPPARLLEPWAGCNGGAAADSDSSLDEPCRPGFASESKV
Protein kinase C eta type (Homo sapiens), sequence (P24723 whole entry): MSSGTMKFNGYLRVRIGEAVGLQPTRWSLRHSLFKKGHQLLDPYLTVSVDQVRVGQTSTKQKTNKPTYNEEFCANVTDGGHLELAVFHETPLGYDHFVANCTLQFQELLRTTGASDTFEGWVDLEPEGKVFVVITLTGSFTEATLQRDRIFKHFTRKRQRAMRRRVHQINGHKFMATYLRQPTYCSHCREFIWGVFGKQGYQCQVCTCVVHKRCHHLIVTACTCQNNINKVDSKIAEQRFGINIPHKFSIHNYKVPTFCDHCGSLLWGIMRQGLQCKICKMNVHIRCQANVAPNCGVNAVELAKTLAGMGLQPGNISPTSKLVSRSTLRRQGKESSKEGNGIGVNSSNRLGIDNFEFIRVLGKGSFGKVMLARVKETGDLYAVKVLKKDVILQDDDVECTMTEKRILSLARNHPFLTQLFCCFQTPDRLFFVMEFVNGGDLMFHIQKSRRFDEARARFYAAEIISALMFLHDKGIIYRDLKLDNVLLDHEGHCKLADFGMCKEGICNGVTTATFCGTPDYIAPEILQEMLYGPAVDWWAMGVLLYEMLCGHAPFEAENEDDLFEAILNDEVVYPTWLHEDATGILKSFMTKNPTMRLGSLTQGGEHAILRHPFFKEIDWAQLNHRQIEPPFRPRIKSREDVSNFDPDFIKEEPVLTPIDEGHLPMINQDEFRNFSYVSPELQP
Leukocyte tyrosine kinase receptor, sequence (P29376 whole entry): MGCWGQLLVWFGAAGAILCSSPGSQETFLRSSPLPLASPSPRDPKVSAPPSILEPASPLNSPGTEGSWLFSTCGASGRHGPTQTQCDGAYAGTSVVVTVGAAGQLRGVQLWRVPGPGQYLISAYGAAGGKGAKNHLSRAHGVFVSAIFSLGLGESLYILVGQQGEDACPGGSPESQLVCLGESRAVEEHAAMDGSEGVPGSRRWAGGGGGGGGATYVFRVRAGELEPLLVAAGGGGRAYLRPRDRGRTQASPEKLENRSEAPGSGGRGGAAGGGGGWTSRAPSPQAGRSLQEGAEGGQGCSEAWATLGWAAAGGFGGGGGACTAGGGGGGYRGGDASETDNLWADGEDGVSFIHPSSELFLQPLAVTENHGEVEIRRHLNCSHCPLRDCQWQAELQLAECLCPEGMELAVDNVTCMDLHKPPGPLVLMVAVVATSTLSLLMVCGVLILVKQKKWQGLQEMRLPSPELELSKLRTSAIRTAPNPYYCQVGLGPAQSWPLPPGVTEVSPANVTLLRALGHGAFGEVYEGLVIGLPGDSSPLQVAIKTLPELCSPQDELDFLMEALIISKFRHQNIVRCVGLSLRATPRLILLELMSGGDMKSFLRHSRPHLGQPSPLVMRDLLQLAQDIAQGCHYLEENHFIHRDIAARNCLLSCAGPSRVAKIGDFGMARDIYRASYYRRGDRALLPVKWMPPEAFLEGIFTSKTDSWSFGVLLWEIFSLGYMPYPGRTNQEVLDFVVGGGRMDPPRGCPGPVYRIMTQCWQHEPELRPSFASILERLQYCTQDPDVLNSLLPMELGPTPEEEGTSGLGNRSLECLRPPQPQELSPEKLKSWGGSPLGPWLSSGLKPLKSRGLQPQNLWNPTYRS
Tyrosine-protein kinase Lck, sequence (P06239 2-509 limits assumed): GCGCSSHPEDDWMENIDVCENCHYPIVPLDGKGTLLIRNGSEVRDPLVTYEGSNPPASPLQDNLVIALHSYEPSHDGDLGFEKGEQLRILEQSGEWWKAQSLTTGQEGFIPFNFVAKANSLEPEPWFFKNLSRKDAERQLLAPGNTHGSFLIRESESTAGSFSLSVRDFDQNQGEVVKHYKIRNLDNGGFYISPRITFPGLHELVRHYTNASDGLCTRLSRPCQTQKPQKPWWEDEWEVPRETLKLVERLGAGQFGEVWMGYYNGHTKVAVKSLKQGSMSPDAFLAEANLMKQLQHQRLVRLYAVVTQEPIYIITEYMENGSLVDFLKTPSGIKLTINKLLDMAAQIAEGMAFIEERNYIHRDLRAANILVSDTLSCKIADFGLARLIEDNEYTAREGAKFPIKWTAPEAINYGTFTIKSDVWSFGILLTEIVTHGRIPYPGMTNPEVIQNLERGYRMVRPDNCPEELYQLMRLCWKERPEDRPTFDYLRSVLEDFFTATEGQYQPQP
G protein-coupled receptor kinase 6 (Homo sapiens), sequence (P43250 whole entry, looked up): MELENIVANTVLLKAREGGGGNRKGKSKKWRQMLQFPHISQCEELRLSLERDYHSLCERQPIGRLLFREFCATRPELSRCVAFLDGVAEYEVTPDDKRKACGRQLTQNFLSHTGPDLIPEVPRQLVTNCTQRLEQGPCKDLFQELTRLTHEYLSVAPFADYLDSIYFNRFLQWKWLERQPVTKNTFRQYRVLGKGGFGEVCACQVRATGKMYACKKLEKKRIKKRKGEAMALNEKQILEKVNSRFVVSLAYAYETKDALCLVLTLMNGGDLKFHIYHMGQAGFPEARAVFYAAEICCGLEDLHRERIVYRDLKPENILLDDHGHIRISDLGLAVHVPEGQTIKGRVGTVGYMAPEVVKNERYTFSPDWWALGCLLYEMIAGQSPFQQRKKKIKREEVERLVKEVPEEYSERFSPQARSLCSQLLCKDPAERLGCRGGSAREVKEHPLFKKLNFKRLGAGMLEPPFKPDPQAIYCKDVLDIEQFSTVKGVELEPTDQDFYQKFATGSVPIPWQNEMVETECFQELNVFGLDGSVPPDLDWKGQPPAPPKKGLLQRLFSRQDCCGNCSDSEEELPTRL
Fibroblast growth factor receptor 3, sequence (P22607 23-806 limits assumed): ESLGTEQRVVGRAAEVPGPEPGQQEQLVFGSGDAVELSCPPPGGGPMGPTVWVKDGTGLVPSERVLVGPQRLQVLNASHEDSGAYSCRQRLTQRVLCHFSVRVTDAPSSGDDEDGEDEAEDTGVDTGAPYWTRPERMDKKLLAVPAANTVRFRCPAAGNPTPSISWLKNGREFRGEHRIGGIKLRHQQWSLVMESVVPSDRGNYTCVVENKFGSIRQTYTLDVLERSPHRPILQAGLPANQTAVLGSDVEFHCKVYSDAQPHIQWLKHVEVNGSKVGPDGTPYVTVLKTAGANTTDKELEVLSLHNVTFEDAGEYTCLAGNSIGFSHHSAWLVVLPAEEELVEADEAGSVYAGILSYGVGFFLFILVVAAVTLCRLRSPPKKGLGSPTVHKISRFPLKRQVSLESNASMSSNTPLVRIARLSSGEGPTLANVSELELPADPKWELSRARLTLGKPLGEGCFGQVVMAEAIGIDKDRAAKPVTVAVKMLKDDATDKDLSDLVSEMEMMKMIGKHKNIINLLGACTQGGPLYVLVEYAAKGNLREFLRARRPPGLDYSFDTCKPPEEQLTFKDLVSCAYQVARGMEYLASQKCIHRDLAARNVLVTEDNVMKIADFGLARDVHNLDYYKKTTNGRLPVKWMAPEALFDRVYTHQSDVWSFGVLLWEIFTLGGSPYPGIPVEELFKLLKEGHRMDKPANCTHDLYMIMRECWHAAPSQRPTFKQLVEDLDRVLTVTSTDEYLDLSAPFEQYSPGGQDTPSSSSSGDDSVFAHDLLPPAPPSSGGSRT
5'-AMP-activated protein kinase catalytic subunit alpha-1, sequence (Q13131 whole entry, looked up): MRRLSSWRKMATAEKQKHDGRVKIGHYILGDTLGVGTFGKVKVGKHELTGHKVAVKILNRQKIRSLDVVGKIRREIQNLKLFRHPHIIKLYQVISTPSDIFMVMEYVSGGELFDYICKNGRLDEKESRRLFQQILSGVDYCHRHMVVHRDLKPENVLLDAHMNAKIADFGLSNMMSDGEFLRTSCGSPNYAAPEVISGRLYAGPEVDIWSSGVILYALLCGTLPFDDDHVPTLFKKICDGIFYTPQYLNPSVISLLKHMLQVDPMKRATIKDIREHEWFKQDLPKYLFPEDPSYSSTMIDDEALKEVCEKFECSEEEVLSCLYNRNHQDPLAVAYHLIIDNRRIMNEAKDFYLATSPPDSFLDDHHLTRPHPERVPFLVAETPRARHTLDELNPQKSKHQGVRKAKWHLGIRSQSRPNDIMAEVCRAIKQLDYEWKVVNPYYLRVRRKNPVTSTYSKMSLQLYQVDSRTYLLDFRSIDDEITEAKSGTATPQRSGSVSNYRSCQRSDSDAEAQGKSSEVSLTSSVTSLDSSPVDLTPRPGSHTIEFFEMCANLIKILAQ

With `Nc1cnc(N2CCc3cc(S(=O)(=O)Nc4c(F)cc(Cl)cc4F)cc(N4CCCC4=O)c32)nc1` [TP-020n], the % of control in test [1] was 98%; in test [2], 73%; in test [3] it was 84%. As to `CCn1c(-c2nc3cc(C(=O)N4CCCC(N)C4)ccc3n2C)cc2ccccc21` (stereo not given), the pXC50 in test [4] was less than 4.5 M.

Consider `N#Cc1cccc(-c2c[nH]c3ncnc(N4CCOCC4)c23)c1`, for which the % of inhibition in [5] came to 10%. In [6], this molecule came in with a % of control of 100%. On to `CN1Cc2nccc(-c3cn(C)nc3-c3ccc(F)cc3)c2C1=O`, for which the % of inhibition in test [7] was -3%. With `CC[C@@H]1[C@H](F)C(=O)N[C@@H]1COc1nccc2cc(C(N)=O)c(OC)cc12` [ZIMLOVISERTIB], the % of inhibition in test [8] turned out to be 2.45%; in test [9], 3.09%; in [10] it was 5.9%. Turning to `CCN(CC)CCCCNc1ncc2cc(-c3cc(OC)cc(OC)c3)c(NC(=O)NC(C)(C)C)nc2n1`, in test [11], the % of control is 100%. For the molecule `CC(=O)Nc1cccc(-n2c(=O)n(C3CC3)c(=O)c3c(Nc4ccc(I)cc4F)n(C)c(=O)c(C)c32)c1`, the % of control in test [12] stood at 107%. For the molecule `C=CC(=O)Nc1cccc(C(=O)Nc2ccc(Nc3cc(-c4[nH]c(SC)nc4C)ccn3)cc2)c1`, the % of control in [13] (at 1 µM) came to 63%; in test [13] (at 5 µM), 38%; in test [14] (at 1 µM), 85%; in [14] (at 5 µM) it was 39%. In test [15], `CC(=O)c1cc(-c2ccccc2OCC2CC2)c2ncccn12` returned a % of control of 87%. `C=CC(=O)Nc1cc(-n2c(=O)ccc3cnc4ccc(-c5ccc(NS(C)(=O)=O)cc5)cc4c32)ccc1C`: the values for the % of control in test [16] (at 1 µM) and in test [16] (at 10 µM) were 100% and 52%, respectively. On to `O[C@H]1CC[C@H](Nc2ncc3nc(Nc4c(F)cc(F)cc4F)n([C@H]4CCOC4)c3n2)CC1`, for which, in [17], the % of control was 99%.
